Assay results reported in patent US20030198617A1, “Pharmaceutical tryptophan containing dipeptide compositions and methods of use thereof” (priority 1993, published 2003).
Entries after “also recorded” stand apart in the source; their conditions may differ. Like-named read-outs stand apart in the source and are kept apart here.

Legend:
Assay type in all cases: in vivo, human
TB bacilli = conditions: 5 doses
[1] = Massive hemotransfusions in post-operative period
Description: Patients exposed to massive hemotransfusions during post-operative period are treated with Ile-Trp. The peptide is administered starting from 4-6 day of post-operative period single daily IM or intranasally in doses 100 μg for 5 days.

[2] = Pregnant women (Examples 34, 87)
Description: Ile-Trp is administered to pregnant women. The route of administration is IM or intranasally 100 μg daily for 5-10 days.
The route of administration is IM or intranasally 100 μg daily for 5-10 days. […] It was also noted that there was a decrease in fetal hypoxia.

Bone fractures = assay: Bone fractures
Description: Ile-Trp is applied to patients with bone fractures of various origin, type and localization. Ile-Trp is administered intramuscularly or intranasally single daily at […] for 10 days.
The control group comprised 28 patients.

Herpes Zoster = Herpes Zoster patients, with interferon; conditions: for clinical effect: 100 μg, 10 days
Description: Patients with Herpes Zoster are treated with Ile-Trp in combination with conventional interferon treatment and some control patients with interferon alone. […] There is noted prevention of relapses, and some healing occurred earlier than control groups. Immunological indices correlates with clinical outcome.
There was noted prevention of relapses, and healing occurred on the average 40% earlier than control groups. Immunological indices correlated with clinical outcome.

tropical malaria = assay: Relapsing tropical malaria
Description: Patients are studied who have relapsing forms of tropical malaria, moderate to severe, and severe cases with 21 patients in the control group. Ile-Trp is administered at 100 μg single daily doses Im or intranasally for 5-10 days.
A total of 33 patients were studied with patients who had relapsing forms of tropical malaria, moderate to severe, and severe cases with 21 patients in the control group.

Lymphangitis = assay: Lymphangitis
[3] = Symptom complexes: joint pain, muscle aches, fevers, chills (Examples 17, 66)
Pyelonephritis = assay: Pyelonephritis
Source text: The normal course of delivery in those women treated with IM862 was without complications.

[4] = Frostbite to the extremities
Description: Patients with frostbite to the extremities are treated with Ile-Trp either IM or intranasally.

[5] = Pyoderma patients (furunculitis, cellulitis, folliculitis); conditions: IM or intranasally 5 days
Description: Patients with pyoderma, including furunculitis, cellulitis, and folliculitis, are treated with Ile-Trp with a control group which is not treated with Ile-Trp. Medications are administered either IM or intranasally for 5 consecutive days. […] Clinical improvement correlate with immunological indices correction. Administration IM, intranasally, or topically as a sterile saline, solution of medication for a period of 5 to 10 days at a concentration of 1 μg/kg body weight.
Medications were administered either IM or intranasally for 5 consecutive days. […] Clinical improvement correlated with immunological indices correction. Administration IM, intranasally, or topically as a sterile saline solution of medication for a period of 5 to 10 days at a concentration of 1 μg/kg body weight.

Periapical granulomas = conditions: 3 days
Description: Patients with periapical granulomas treated with Ile-Trp are tested.

[6] = Chronic and acute ear infections
AIDS = AIDS infected and immunosuppressed individuals
hemorrhagic Dengue Fever = assay: Hemorrhagic Dengue Fever (Examples 38, 94)
Source text: Ile-Trp is applied in patients with hemorrhagic Dengue Fever. […]
It was also noted that the muscular and bone pain experienced typically was reduced, and the immunological indices were normalized.

[7] = Toothpaste containing the dipeptide: dental caries, gingival disease
Psoriasis patients = conditions: 10 days
Description: Patients with psoriasis are treated with Ile-Trp and some patients are used as controls.
All patients had at a least 5 year history of […] treatment.

[8] = Eye problems, with conventional treatment
Description: Patients with various eye problems are treated by conventional methods, with one group receiving Ile-Trp in addition to the conventional treatment.

[9] = Patients subjected to skin grafting
Description: Ile-Trp is administered to patients subjected to skin grafting. Ile-Trp is administered IM or intranasally single daily at 50-100 μg for 5 days.
The control group comprised 27 patients. […] In control group the manifestations of rejection were determined in 8 patients.

Chronic osteomyelitis = assay: Chronic osteomyelitis
Description: Ile-Trp is prescribed to patients with chronic osteomyelitis of various etiology and localization. Ile-Trp is administered IM or intranasally single daily at 100 μg for 10 days.
The control group comprised 88 patients.

Wounds of various origin = assay: Wounds of various origin
Description: Ile-Trp is used in patients with wounds of various origin, type and localization. Ile-Trp is administered IM or topically single daily at 100 μg for 10 days.
The control group comprised 24 patients.

[10] = IM862 100 μg IM or intranasally

In the case of Glu-Trp [IM862], the clinical effect (TB bacilli; IM862 50 to 100 μg every other day, 2 months after the course, 37 patients) is reported as “disappearance of toxic symptoms”, the alloblood rejection ([1]; IM862 100 μg 5 days, 76 patients) is reported as “None of studies patients showed clinical manifestation of alloblood rejection” and the clinical effect ([2]; IM862 100 μg daily 5-10 days, 34 women) is reported as “resolution of weakness, dizziness, and increased appetite”. The consolidation of fractures (Bone fractures; IM862, 10 days, 44 patients) was “accelerated essentially”, the clinical effect (Herpes Zoster; IM862 with interferon, 37 patients) was “accelerated regression of foci of herpetic infection” and the “healing earlier than control groups” value (Herpes Zoster; IM862 with interferon, on the average) was 40%. The clinical effect (tropical malaria; IM862 100 μg 5-10 days, 33 patients) was “reduction of hepatolineal syndrome”, the clinical effect (Lymphangitis; IM862 100 μg) was “controls the advance of lymphangitis” and the clinical effect ([3]; IM862 100 μg 5-10 days, 156 patients) was “accelerated reduction in symptom complexes”. For the same substance, the clinical effect (Pyelonephritis; IM862 100 μg 5-10 days with conventional therapy, 27 patients) was “reduction of fever”, the clinical effect ([4]; IM862 IM or intranasally, 17 patients) was “rapid healing and restoration of tissue integrity” and the clinical effect ([5]; IM862, 159 patients) was “Immunological indices were normalized with disappearance of skin manifestations”. For the same substance, the clinical effect (Periapical granulomas; IM862 100 μg instillation, 46 patients) was “accelerated arrestation of the inflammatory process”, the clinical effect ([6]; IM862 with antibiotics) was “accelerated healing of chronic and acute ear infections” and the immunological indices (AIDS; IM862, immunosuppressed individuals with radiation injuries) was “excellent restoration of immunological indices”. For the same substance, the “comparison with TPI as cell mediator” value (AIDS; IM862 vs TPI) was “far more effective cell mediator”, the clinical effect (hemorrhagic Dengue Fever; IM862 IM 100 μg 3 days with conventional therapy, 21 patients) was “reduction in fever” and the clinical effect ([7]; toothpaste containing IM862) was “reduction of gingival disease and reduction in dental caries”. For the same substance, the “significant improvement, share of patients” value (Psoriasis patients; [10]) was 60%, the “total recovery, share of patients” value (Psoriasis patients; [10]) was 33% and the “improvement, share of patients” value (Psoriasis patients; IM862 100 μg IM or intranasally, 30 patients) was 7%. For the same substance, the clinical effect ([8]; IM862 intra ocularly 18 μg 5 days or drops, 41 patients) was “more rapid arresting of the inflammatory process”, the “infectious complications and graft rejection” value ([9]; IM862 50-100 μg 5 days, all 17 patients) was “prevented the arising of infections complications and graft rejection” and the clinical effect (Chronic osteomyelitis; IM862 100 μg 10 days, 176 patients) was “pronounced positive influence on clinical course”. For the same substance, the wound healing (Wounds of various origin; IM862) was “speeded up; also recorded: accelerates wound healing”.
In the case of Ile-Trp, the clinical effect (TB bacilli; Ile-Trp 50 to 100 μg every other day, with conventional therapy) is reported as “disappearance of toxic symptoms”, the alloblood rejection ([1]; Ile-Trp 100 μg 5 days) is reported as “do not show clinical manifestation of alloblood rejection” and the clinical effect ([2]; Ile-Trp 100 μg daily 5-10 days) is reported as “resolution of weakness, dizziness, and increased appetite”. For the same substance, the consolidation of fractures (Bone fractures; Ile-Trp, 10 days) was “accelerates essentially”, the clinical effect (Herpes Zoster; Ile-Trp with interferon) was “accelerated regression of foci of herpetic infection” and the clinical effect (tropical malaria; Ile-Trp 100 μg 5-10 days) was “reduction of hepatolineal syndrome”. The clinical effect (Lymphangitis; Ile-Trp 100 μg) was “controls the advance of lymphangitis”, the clinical effect ([3]; Ile-Trp 100 μg 5-10 days) was “accelerated reduction in symptom complexes” and the clinical effect (Pyelonephritis; Ile-Trp 100 μg 5-10 days with conventional therapy) was “reduction of fever”. The clinical effect ([4]; Ile-Trp IM or intranasally) was “Rapid healing and restoration of tissue integrity”, the clinical effect ([5]; Ile-Trp) was “Immunological indices are normalized with disappearance of skin manifestations” and the clinical effect (Periapical granulomas; Ile-Trp 100 μg instillation) was “accelerated arrestation of the inflammatory process”. The clinical effect ([6]; Ile-Trp with antibiotics) was “accelerated healing of chronic and acute ear infections”, the “immunologic indices, T-cell functional activity, T4/T8 ratios” value (AIDS; Ile-Trp, AIDS infected individuals) was “restoring normal immunologic indices” and the immunological indices (AIDS; Ile-Trp, immunosuppressed individuals with radiation injuries) was “excellent restoration of immunological indices”. The clinical effect (hemorrhagic Dengue Fever; Ile-Trp IM 100 μg 5 days with conventional therapy) was “reduction in fever”, the clinical effect ([7]; toothpaste containing Ile-Trp) was “reduction of gingival disease and reduction in dental caries” and the clinical effect (Psoriasis patients; Ile-Trp 100 μg IM or intranasally) was “improvement in most of the patients, and total recovery in some of the patients”. For the same substance, the clinical effect ([8]; Ile-Trp intra ocularly 18 μg 5 days or drops) was “more rapid arresting of the inflammatory process”, the “infectious complications and graft rejection” value ([9]; Ile-Trp 50-100 μg 5 days) was “prevents the arising of infections complications and graft rejection” and the clinical effect (Chronic osteomyelitis; Ile-Trp 100 μg 10 days) was “pronounced positive influence on clinical course”. The wound healing (Wounds of various origin; Ile-Trp) was “speeds up; also recorded: accelerates wound healing”.
